# Experimental data: PubChem BioAssay (NCI)
#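 Each compound was tested at five concentrations against cells in 96-well plates for 48 hours. At the GI50, growth is halved. TGI: concentration producing complete growth inhibition.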
# How the values were obtained:
# Experiment in all cases: growth of human tumour cells (NCI), 48 h
# 786-0 renal = system: 786-0 renal
# A498 renal = system: A498 renal
# CAKI-1 renal = system: CAKI-1 renal
# OVCAR-3 ovarian = system: OVCAR-3 ovarian
# OVCAR-8 ovarian = system: OVCAR-8 ovarian
# SR leukemia = system: SR leukemia
# UACC-257 melanoma = system: UACC-257 melanoma
# HCT-15 colon = system: HCT-15 colon
# BT-549 breast = system: BT-549 breast
# MDA-MB-435 = system: MDA-MB-435
SMILES,TGI (786-0 renal) [µM],TGI (A498 renal) [µM],TGI (CAKI-1 renal) [µM],TGI (OVCAR-3 ovarian) [µM],TGI (OVCAR-8 ovarian) [µM],TGI (SR leukemia) [µM],TGI (UACC-257 melanoma) [µM],TGI (HCT-15 colon) [µM],GI50 (786-0 renal) [µM],GI50 (A498 renal) [µM],GI50 (BT-549 breast) [µM],TGI (BT-549 breast) [µM],GI50 (CAKI-1 renal) [µM],GI50 (HCT-15 colon) [µM],GI50 (MDA-MB-435) [µM],TGI (MDA-MB-435) [µM],GI50 (OVCAR-3 ovarian) [µM],GI50 (OVCAR-8 ovarian) [µM],GI50 (UACC-257 melanoma) [µM],GI50 (SR leukemia) [µM]
Cc1ccc(S(=O)(=O)N/N=C/c2oc(-c3ccccc3Cl)c(-c3ccccc3Cl)c2[N+](=O)[O-])cc1,72,61.8,> 100,> 100,> 100,64.6,> 100,,,,,,,,,,,,,
Cc1ccc([N+](=O)[O-])cc1NC(=O)C(=O)Cc1cc(=O)oc2cc(O)ccc12,> 100,> 100,> 100,> 100,> 100,94.2,> 100,> 100,,,,,,,,,,,,
O=C(Nc1ccc([N+](=O)[O-])cc1C(=O)O)c1ccc([N+](=O)[O-])cc1,> 100,> 100,,> 100,> 100,,> 100,> 100,,,,,,,,,,,,
CO/N=C(\COc1ccc2c(c1)oc(=O)c1cc(OC)ccc12)c1ccc(F)cc1,28.7,93.5,55,34.2,> 100,,> 100,81.9,14.3,22.3,23.4,55.2,19.1,24.7,66.1,> 100,16.7,26.7,45.5,
Cn1cnc([N+](=O)[O-])c1SC1=NCCS1,> 100,> 100,> 100,> 100,> 100,> 100,> 100,,,,,,,,,,,,,
COc1ccc(NC(=O)COC(=O)c2cccc3c(=O)c4ccccc4[nH]c23)cc1,53.1,39.6,67.9,43.8,55.9,28.9,42.7,,,,,,,,,,,,,
O=c1[nH]c(=O)n(C2CC(O)C(CO)O2)cc1C#Cc1cc(C(F)(F)F)cc(C(F)(F)F)c1 (stereo not given),> 100,> 100,> 100,> 100,> 100,> 100,> 100,> 100,,,,,,,,,,,,
COCOCc1cc(OCc2ccccc2)c(OC)cc1Br,> 100,> 100,> 100,> 100,> 100,> 100,> 100,> 100,,,,,,,,,,,,
CCOCC(=O)N[C@H]1CCc2cc(OC(=O)COCC)c(OC)c(OC)c2-c2ccc(SC)c(=O)cc21,> 100,,,0.0166,,,,2.85,0.0568,,,,,,,0.00412,,0.0365,,
O=C(CC/C(CC(=O)c1ccc(Cl)cc1)=N/O)Nc1ccc(Cl)c(Cl)c1,> 100,> 100,> 100,> 100,> 100,> 100,> 100,> 100,,,,,,,,,,,,
Cc1nc(N)sc1N=Nc1cc(Cl)c([N+](=O)[O-])cc1Cl,> 100,,68.5,40,36.8,26.5,44.7,79.3,,,,,,,,42.1,,,,
C/C1=C\CC[C@@]2(C)O[C@@H]2C[C@@H]2[C@H](C/C(C)=C/CC1)OC(=O)C21CCN=N1 (stereo not given in full),> 100,> 100,> 100,> 100,> 100,,> 100,> 100,> 100,,> 100,> 100,> 100,> 100,> 100,> 100,> 100,> 100,> 100,
CC(=O)c1c(O)ccc2c(C)c(C(=O)O)oc12,> 100,> 100,> 100,> 100,> 100,,> 100,> 100,> 100,> 100,> 100,> 100,> 100,> 100,> 100,> 100,> 100,> 100,> 100,
Oc1ccccc1Nc1nc2ccccc2c2occc12,19.2,,12.8,16.3,35.8,> 100,29.6,31.7,0.399,,7.59,20.7,1.78,12.8,9.25,21.2,2.48,15.4,16.1,14.8
N#CCC12CC=CCC1=C(O)C(=O)c1ccc(O)cc12 (stereo not given),> 100,> 100,> 100,> 100,> 100,> 100,> 100,> 100,,,,,,,,> 100,,,,
C#C[C@@]1(O)CCCC2=CC(=O)C[C@]21C,> 100,,,> 100,> 100,> 100,> 100,> 100,,,,,,,,,,,,
O=c1[nH]ccc2nc(-c3ccc(CN4CCC(c5nc(-c6ccccn6)n[nH]5)CC4)cc3)c(-c3ccccc3)cc12,18.1,0.355,,> 66.3,> 100,66,51.3,> 100,0.737,< 0.0345,0.711,30,,16.5,17.4,> 100,0.904,20,14.8,2.34
Cc1cc(Cl)ccc1NC(=O)CC1SC(N)=NC1=O (stereo not given),> 100,> 100,> 100,> 100,> 100,,> 100,> 100,,,,,,,,,,,,
N#CCc1ccc(/C(C#N)=C2/OC(=N)C(c3ccc(CC#N)cc3)C2=O)cc1 (stereo not given),> 100,> 100,> 100,> 100,> 100,,> 100,> 100,,,,,,,,,,,,
O=C1CCCC(=O)C1=C(O)CCCCCCCCCCc1ccccc1,> 100,,38,> 100,> 100,71.9,> 100,,,,,,,,,,,,,
COC(=O)c1c(C)cc2c(c1O)C1(O)C(=O)c3cc4c(c(O)c3C(=O)C1(OC)C(O)C2)C(=O)C=C(NC1OC(C)C(OC)C(O)C1OC)C4=O (stereo not given),0.202,0.71,0.806,0.558,0.14,,0.0357,0.443,,,,,,,,,,,,

SMILES,TGI (786-0 renal) [µM],TGI (A498 renal) [µM],TGI (CAKI-1 renal) [µM],TGI (OVCAR-3 ovarian) [µM],TGI (OVCAR-8 ovarian) [µM],TGI (SR leukemia) [µM],TGI (UACC-257 melanoma) [µM],TGI (HCT-15 colon) [µM],GI50 (786-0 renal) [µM],GI50 (A498 renal) [µM],GI50 (BT-549 breast) [µM],TGI (BT-549 breast) [µM],GI50 (CAKI-1 renal) [µM],GI50 (HCT-15 colon) [µM],GI50 (MDA-MB-435) [µM],TGI (MDA-MB-435) [µM],GI50 (OVCAR-3 ovarian) [µM],GI50 (OVCAR-8 ovarian) [µM],GI50 (UACC-257 melanoma) [µM],GI50 (SR leukemia) [µM]
Cc1ccc(-c2nc3c(C(=O)NCCN(C)C)cccc3[nH]2)cc1,> 100,27.8,> 100,86.7,78.3,,27.5,58.2,,,,,,,,,,,,
Cc1ccc(NC(=O)COC(=O)c2cccc3c(=O)c4ccccc4[nH]c23)cc1,> 100,92.4,> 100,> 100,> 100,65.1,> 100,,,,,,,,,,,,,
S=P1(c2ccccc2)Nc2ccc(Cl)cc2N1 (stereo not given),> 100,> 100,> 100,> 100,,,> 100,> 100,,,,,,,,,,,,
Cc1ccc(NC(=O)C(=O)C2NC(=S)NC2=O)c([N+](=O)[O-])c1 (stereo not given),> 100,> 100,> 100,> 100,> 100,> 100,> 100,> 100,,,,,,,,,,,,
O=C(CC(O)c1ccncc1)c1ccccc1 (stereo not given),> 100,,> 100,> 100,> 100,47.6,80.4,> 100,30,,22.4,88.4,23.1,28.2,20.8,56.5,30.5,33.8,23.8,18.9
COc1ccc(N(C)c2nc(Cl)nc3ccn(C)c23)cc1,> 100,> 100,,> 100,> 100,> 100,> 100,> 100,< 0.01,< 0.01,< 0.01,> 100,,< 0.01,,,< 0.01,< 0.01,> 100,< 0.01
O=C1Cc2ccccc2N1c1c(Cl)cccc1Cl,> 100,> 100,> 100,> 100,> 100,90.2,> 100,> 100,,,,,,,,,,,,
COc1ccc(/C(=N\O)c2cc(OC)c(OC)c(OC)c2)c(OC)c1N,> 100,> 100,> 100,7.8,> 100,,,> 100,6.77,3.75,3.86,> 100,4.38,2.64,0.653,4.65,2.53,5.52,,
CC1C=CC(C)C2(O)C(=O)NC(O)C12 (stereo not given),> 100,> 100,> 100,,> 100,> 100,> 100,> 100,,,,,,,,,,,,
N#CCCN(CCC#N)c1ccc(/C=N\c2nc(-c3ccccc3)cs2)cc1,> 100,> 100,> 100,> 100,> 100,,> 100,> 100,,,,,,,,,,,,
CCC[CH2][Sn]1([CH2]CCC)[O]C(=O)c2cccc(OC)c2[O]1,1.91,0.465,0.775,2.01,1.71,,0.537,2,0.554,0.21,,,0.0732,0.698,,,0.626,0.469,0.199,
Cc1ccc(/C=C/C(=O)c2ccc(N)cc2)c(C)c1,3.45,27.5,3.18,,,,28.3,,1.88,13.6,1.68,3.4,1.72,,4.01,15.5,,,14.3,
COc1ccc2c(c1)C(=O)/C(=C/c1ccc([N+](=O)[O-])s1)O2,6.73,6.51,> 100,0.548,> 100,,3.11,0.697,1.47,2.05,0.246,0.617,2.19,0.219,0.314,1.76,0.252,0.362,0.819,
CCN(CC)CCC(=O)N1CCc2c([nH]c3ccccc23)C1c1cccnc1 (stereo not given),> 100,> 100,> 100,> 100,> 100,> 100,> 100,> 100,,,,,,,,,,,,
C[N+](C)(C)Cc1c(CC#N)[nH]c2ccccc12,> 100,> 100,> 100,> 100,> 100,> 100,> 100,> 100,,,,,,,,,,,,
COc1ccc(CC2NCCc3cc(OC)c(OC)cc32)cc1 (stereo not given),> 100,,> 100,> 100,> 100,> 100,> 100,> 100,,,,,,,,,,,,
CN1C(=O)c2cc([N+](=O)[O-])ccc2[C@H]2C(=O)c3cc4c(cc3[C@H]21)OCO4,,0.528,0.228,0.455,,,3.3,> 50,0.0388,0.257,,,< 0.01,0.19,0.167,2.72,0.0751,0.0702,0.139,
CCOC(=O)N[C@H]1CCc2cc(O)c(OC)c(OC)c2-c2ccc(SC)c(=O)cc21,> 59.9,0.922,> 65.3,0.0375,> 100,> 100,> 100,> 100,,,,,,,,,,,,
COc1cc(C(=O)/C=C/c2c(-c3ccc(F)cc3)nc3ncccn23)cc(OC)c1OC,9.6,7.58,,3.64,> 100,> 100,> 100,,2.76,2.2,1.8,19.4,,,2.36,96.6,1.4,2.69,3.73,2.28
Cn1cnc([N+](=O)[O-])c1Sc1nc2cccnc2s1,28.1,> 100,21,28.1,90.1,37.1,27.9,24.8,,,,,,,,,,,,
CC1CC(=O)C(CC(=O)O)C1C(C(=O)C(=O)Nc1c(C#N)cccc1[N+](=O)[O-])[N+](=O)[O-] (stereo not given),> 100,> 100,> 100,> 100,> 100,> 100,> 100,> 100,,,,,,,,,,,,
